Our source for the remaining binding values is PMC9856672, “SGC-CAMKK2-1: A Chemical Probe for CAMKK2” (Cells, 2023).

One experiment addresses T1, TNNI3K (Homo sapiens, UniProt Q59H18).
T1 construct: purchased Eurofins DiscoverX KINOMEscan
Kind of experiment: DiscoverX KINOMEscan binding assay at 1 μM, TNNI3K. The settings on record: Compound Concentration 1000 nM, read-out: Percent Control. The text has this: (§1) Supplement cells-12-00287-s001.zip/File S2. KinomeScan data for the CAMKK2 probe and negative control.xlsx, sheet "SGC-CAMKK2-1" | column: Percent Control

Another experiment deals with T2, NEK11 (Homo sapiens, UniProt Q8NG66).
T2 construct: purchased Eurofins DiscoverX KINOMEscan
The experiment in a line: KINOMEscan 1 μM, NEK11. Type of experiment: binding. The settings on record: 1000 nM; Entrez NEK11; read-out: Percent Control.
Source text: as §1

The target in a further experiment is T3, PHKG1 (Homo sapiens, UniProt Q16816).
T3 construct: purchased Eurofins DiscoverX KINOMEscan
The experiment in a line: KINOMEscan 1 μM, PHKG1. The conditions noted are these: 1000 nM; Entrez PHKG1; read-out: Percent Control. It is filed as binding.
Source text: as §1

For experiment [1], the target named is T4, ABL1(F317L)-nonphosphorylated (Homo sapiens, UniProt P00519, F317L).
T4 construct: purchased Eurofins DiscoverX KINOMEscan
The experiment in a line: KINOMEscan 1 μM, ABL1(F317L)-nonphosphorylated. It is filed as binding. The conditions noted are these: 1000 nM; Entrez ABL1; read-out: Percent Control.
Source text: as §1

Another experiment concerns the target T5, MAP3K4 (Homo sapiens, UniProt Q9Y6R4).
T5 construct: purchased Eurofins DiscoverX KINOMEscan
Kind of experiment: KINOMEscan 1 μM, MAP3K4. Type of experiment: binding. The settings on record: 1000 nM; Entrez MAP3K4; read-out: Percent Control.
Source text: as §1

Experiment [2] deals with T6, ABL1(Y253F)-phosphorylated (Homo sapiens, UniProt P00519, Y253F).
T6 construct: purchased Eurofins DiscoverX KINOMEscan
Kind of experiment: KINOMEscan 1 μM, ABL1(Y253F)-phosphorylated. It is filed as binding. The conditions noted are these: 1000 nM; Entrez ABL1; read-out: Percent Control.
Source text: as §1

The target of experiment [3] is T7, ABL1(T315I)-phosphorylated (Homo sapiens, UniProt P00519, T315I).
T7 construct: purchased Eurofins DiscoverX KINOMEscan
Kind of experiment: KINOMEscan 1 μM, ABL1(T315I)-phosphorylated. It is filed as binding. The conditions noted are these: 1000 nM; Entrez ABL1; read-out: Percent Control.
Source text: as §1

A further experiment addresses T8, TRPM6 (Homo sapiens, UniProt Q9BX84).
T8 construct: purchased Eurofins DiscoverX KINOMEscan
Kind of experiment: DiscoverX KINOMEscan binding assay at 1 μM, TRPM6. The conditions noted are these: Compound Concentration 1000 nM, read-out: Percent Control.
Source text: as §1

A further experiment deals with T9, ADCK4 (Homo sapiens, UniProt Q96D53).
T9 construct: purchased Eurofins DiscoverX KINOMEscan
Kind of experiment: KINOMEscan 1 μM, ADCK4. Type of experiment: binding. The settings on record: 1000 nM; Entrez ADCK4; read-out: Percent Control.
Source text: as §1

In experiment [4] the target is T10, KIT-autoinhibited (Homo sapiens, UniProt P10721).
T10 construct: purchased Eurofins DiscoverX KINOMEscan
T10 sequence (P10721 26-976): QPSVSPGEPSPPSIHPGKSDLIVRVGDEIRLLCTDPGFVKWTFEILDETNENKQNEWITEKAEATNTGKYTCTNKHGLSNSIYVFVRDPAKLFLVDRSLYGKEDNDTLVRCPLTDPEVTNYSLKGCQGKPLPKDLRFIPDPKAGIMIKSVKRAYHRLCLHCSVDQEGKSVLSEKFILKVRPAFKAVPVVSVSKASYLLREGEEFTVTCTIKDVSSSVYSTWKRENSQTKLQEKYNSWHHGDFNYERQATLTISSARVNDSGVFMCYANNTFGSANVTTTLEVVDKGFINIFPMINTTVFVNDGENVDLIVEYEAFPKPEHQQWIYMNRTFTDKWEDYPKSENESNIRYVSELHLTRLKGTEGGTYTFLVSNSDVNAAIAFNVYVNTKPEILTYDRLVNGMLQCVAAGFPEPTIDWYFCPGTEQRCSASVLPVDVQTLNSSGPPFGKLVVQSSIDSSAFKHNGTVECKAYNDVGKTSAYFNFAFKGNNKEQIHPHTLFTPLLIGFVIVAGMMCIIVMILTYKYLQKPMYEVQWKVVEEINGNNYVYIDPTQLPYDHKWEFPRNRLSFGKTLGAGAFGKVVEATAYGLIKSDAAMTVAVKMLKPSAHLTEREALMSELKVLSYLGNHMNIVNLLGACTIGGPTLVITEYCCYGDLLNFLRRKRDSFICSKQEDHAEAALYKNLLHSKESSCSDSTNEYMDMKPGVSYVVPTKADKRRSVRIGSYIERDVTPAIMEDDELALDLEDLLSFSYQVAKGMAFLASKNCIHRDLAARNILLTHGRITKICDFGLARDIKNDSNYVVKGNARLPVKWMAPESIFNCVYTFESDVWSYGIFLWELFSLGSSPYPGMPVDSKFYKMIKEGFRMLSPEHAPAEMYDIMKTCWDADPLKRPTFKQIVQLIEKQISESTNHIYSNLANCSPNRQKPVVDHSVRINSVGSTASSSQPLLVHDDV
The experiment in a line: KINOMEscan 1 μM, KIT-autoinhibited. It is filed as binding. The conditions noted are these: 1000 nM; Entrez KIT; read-out: Percent Control.
Source text: as §1

The target in a further experiment is T11, BTK (Homo sapiens, UniProt Q06187).
T11 construct: purchased Eurofins DiscoverX KINOMEscan
T11 sequence (Q06187 whole entry): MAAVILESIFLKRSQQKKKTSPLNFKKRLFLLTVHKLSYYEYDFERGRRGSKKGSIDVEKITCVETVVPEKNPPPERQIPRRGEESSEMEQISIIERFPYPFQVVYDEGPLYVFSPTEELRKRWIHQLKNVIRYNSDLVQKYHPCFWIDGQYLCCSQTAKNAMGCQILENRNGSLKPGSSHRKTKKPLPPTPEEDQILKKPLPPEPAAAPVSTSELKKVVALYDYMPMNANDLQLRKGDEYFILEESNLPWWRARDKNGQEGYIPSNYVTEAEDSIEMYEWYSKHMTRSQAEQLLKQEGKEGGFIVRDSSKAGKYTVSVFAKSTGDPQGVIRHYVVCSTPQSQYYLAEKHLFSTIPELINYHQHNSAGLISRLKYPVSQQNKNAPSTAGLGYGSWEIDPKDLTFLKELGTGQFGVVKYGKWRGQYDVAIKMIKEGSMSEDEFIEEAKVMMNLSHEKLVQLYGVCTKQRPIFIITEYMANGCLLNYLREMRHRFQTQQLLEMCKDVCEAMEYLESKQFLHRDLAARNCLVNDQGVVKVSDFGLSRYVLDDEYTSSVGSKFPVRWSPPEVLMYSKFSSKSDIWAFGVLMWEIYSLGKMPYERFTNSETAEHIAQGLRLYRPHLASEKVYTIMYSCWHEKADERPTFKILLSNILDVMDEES
The experiment in a line: KINOMEscan 1 μM, BTK. It is filed as binding. The conditions noted are these: 1000 nM; Entrez BTK; read-out: Percent Control.
Source text: as §1

For another experiment, the target named is T12, CSNK2A2 (Homo sapiens, UniProt P19784).
T12 construct: purchased Eurofins DiscoverX KINOMEscan
T12 sequence (P19784 whole entry): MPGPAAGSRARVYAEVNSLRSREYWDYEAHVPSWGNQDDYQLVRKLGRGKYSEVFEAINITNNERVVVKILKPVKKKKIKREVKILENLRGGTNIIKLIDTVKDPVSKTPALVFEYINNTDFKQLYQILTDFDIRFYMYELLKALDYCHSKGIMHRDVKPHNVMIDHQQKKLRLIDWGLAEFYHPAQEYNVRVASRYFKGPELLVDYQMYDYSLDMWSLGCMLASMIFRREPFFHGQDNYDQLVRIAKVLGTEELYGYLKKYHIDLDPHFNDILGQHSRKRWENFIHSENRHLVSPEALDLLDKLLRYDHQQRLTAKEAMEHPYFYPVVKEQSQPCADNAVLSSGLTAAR
Kind of experiment: KINOMEscan 1 μM, CSNK2A2. The settings on record: 1000 nM; Entrez CSNK2A2; read-out: Percent Control. Type of experiment: binding.
Source text: as §1

The target in another experiment is T13, EPHB1 (Homo sapiens, UniProt P54762).
T13 construct: purchased Eurofins DiscoverX KINOMEscan
Kind of experiment: KINOMEscan 1 μM, EPHB1. The settings on record: 1000 nM; Entrez EPHB1; read-out: Percent Control. Type of experiment: binding.
Source text: as §1

Another experiment addresses T14, LRRK2 (Homo sapiens, UniProt Q5S007).
T14 construct: purchased Eurofins DiscoverX KINOMEscan
The experiment in a line: KINOMEscan 1 μM, LRRK2. Type of experiment: binding. The conditions noted are these: 1000 nM; Entrez LRRK2; read-out: Percent Control.
Source text: as §1

The target in a further experiment is T15, RIPK5 (Homo sapiens, UniProt Q6XUX3).
T15 construct: purchased Eurofins DiscoverX KINOMEscan
Kind of experiment: DiscoverX KINOMEscan binding assay at 1 μM, RIPK5. The settings on record: RIPK5 (DSTYK); Compound Concentration 1000 nM; read-out: Percent Control.
Source text: as §1

Another experiment concerns the target T16, AAK1 (Homo sapiens, UniProt Q2M2I8).
T16 construct: purchased Eurofins DiscoverX KINOMEscan
Kind of experiment: KINOMEscan at 1 μM, AAK1. It is filed as binding. The conditions noted are these: 1000 nM, read-out: Percent Control. From the text:
(§2) Supplement cells-12-00287-s001.zip/File S2. KinomeScan data for the CAMKK2 probe and negative control.xlsx, sheet "SGC-CAMKK2-1N" | column: Percent Control

Experiment [5] addresses T17, RSK4(Kin.Dom.1-N-terminal) (Homo sapiens, UniProt Q9UK32).
T17 construct: RSK4(Kin.Dom.1-N-terminal); purchased Eurofins DiscoverX KINOMEscan
Kind of experiment: KINOMEscan at 1 μM, RSK4(Kin.Dom.1-N-terminal). Type of experiment: binding. The conditions noted are these: 1000 nM, read-out: Percent Control.
Source text: as §2

In the next experiment the target is T18, PKAC-alpha (Homo sapiens, UniProt P17612).
T18 construct: purchased Eurofins DiscoverX KINOMEscan
Kind of experiment: KINOMEscan binding assay at 1 μM, PKAC-alpha. The settings on record: Compound Concentration 1000 nM; read-out: Percent Control.
Source text: as §2

The target of experiment [6] is T10, KIT-autoinhibited. The experiment in a line: KINOMEscan at 1 μM, KIT-autoinhibited. Type of experiment: binding. The settings on record: 1000 nM, read-out: Percent Control.
Source text: as §2

The target of a further experiment is T19, BLK (Homo sapiens, UniProt P51451).
T19 construct: purchased Eurofins DiscoverX KINOMEscan
T19 sequence (P51451 whole entry): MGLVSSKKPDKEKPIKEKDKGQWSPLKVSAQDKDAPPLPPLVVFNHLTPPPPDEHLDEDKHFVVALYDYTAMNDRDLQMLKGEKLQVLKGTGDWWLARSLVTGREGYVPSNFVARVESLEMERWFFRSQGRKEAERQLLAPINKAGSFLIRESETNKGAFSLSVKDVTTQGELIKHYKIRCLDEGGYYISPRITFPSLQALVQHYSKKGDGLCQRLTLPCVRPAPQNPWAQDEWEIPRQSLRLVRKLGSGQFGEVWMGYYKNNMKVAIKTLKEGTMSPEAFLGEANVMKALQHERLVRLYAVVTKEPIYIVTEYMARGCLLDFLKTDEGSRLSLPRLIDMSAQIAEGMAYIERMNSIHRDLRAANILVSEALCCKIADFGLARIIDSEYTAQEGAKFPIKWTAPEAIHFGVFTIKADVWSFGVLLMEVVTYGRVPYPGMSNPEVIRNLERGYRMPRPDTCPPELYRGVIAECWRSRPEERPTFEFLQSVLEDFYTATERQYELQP
The experiment in a line: KINOMEscan at 1 μM, BLK. The settings on record: 1000 nM, read-out: Percent Control. It is filed as binding.
Source text: as §2

The target of the next experiment is T20, CDK4-cyclinD1 (Homo sapiens, UniProt P11802).
T20 construct: purchased Eurofins DiscoverX KINOMEscan
Kind of experiment: KINOMEscan at 1 μM, CDK4-cyclinD1. The settings on record: 1000 nM, read-out: Percent Control. It is filed as binding.
Source text: as §2

Another experiment deals with T21, CDC2L5 (Homo sapiens, UniProt Q14004).
T21 construct: purchased Eurofins DiscoverX KINOMEscan
The experiment in a line: KINOMEscan at 1 μM, CDC2L5. Type of experiment: binding. The conditions noted are these: 1000 nM, read-out: Percent Control.
Source text: as §2

For a further experiment, the target named is T22, AKT2 (Homo sapiens, UniProt P31751).
T22 construct: purchased Eurofins DiscoverX KINOMEscan
T22 sequence (P31751 whole entry): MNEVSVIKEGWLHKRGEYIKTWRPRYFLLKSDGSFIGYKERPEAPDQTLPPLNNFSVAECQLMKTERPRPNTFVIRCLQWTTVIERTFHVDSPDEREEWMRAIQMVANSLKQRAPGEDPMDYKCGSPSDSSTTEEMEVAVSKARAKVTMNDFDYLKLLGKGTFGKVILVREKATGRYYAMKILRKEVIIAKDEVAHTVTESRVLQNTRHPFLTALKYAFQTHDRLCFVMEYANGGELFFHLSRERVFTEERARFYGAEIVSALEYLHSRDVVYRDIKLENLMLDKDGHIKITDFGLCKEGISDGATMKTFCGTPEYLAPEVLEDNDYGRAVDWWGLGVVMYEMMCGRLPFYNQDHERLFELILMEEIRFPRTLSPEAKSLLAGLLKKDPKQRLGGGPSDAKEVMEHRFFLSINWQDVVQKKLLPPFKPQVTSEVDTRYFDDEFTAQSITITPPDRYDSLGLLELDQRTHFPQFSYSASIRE
Kind of experiment: KINOMEscan at 1 μM, AKT2. Type of experiment: binding. The settings on record: 1000 nM, read-out: Percent Control.
Source text: as §2

A further experiment addresses T23, ACVR1B (Homo sapiens, UniProt P36896).
T23 construct: purchased Eurofins DiscoverX KINOMEscan
The experiment in a line: KINOMEscan at 1 μM, ACVR1B. Type of experiment: binding. The settings on record: 1000 nM, read-out: Percent Control.
Source text: as §2

The target in a further experiment is T24, PRKG2 (Homo sapiens, UniProt Q13237).
T24 construct: purchased Eurofins DiscoverX KINOMEscan
Kind of experiment: KINOMEscan at 1 μM, PRKG2. The settings on record: 1000 nM, read-out: Percent Control. Type of experiment: binding.
Source text: as §2

The next experiment has as its target T25, EPHB2 (Homo sapiens, UniProt P29323).
T25 construct: purchased Eurofins DiscoverX KINOMEscan
The experiment in a line: KINOMEscan binding assay at 1 μM, EPHB2. The settings on record: Compound Concentration 1000 nM; read-out: Percent Control.
Source text: as §2

A further experiment has as its target T26, PIK3CA(E545A) (Homo sapiens, UniProt P42336, E545A).
T26 construct: purchased Eurofins DiscoverX KINOMEscan
Kind of experiment: KINOMEscan at 1 μM, PIK3CA(E545A). The settings on record: 1000 nM, read-out: Percent Control. Type of experiment: binding.
Source text: as §2

The target of the next experiment is T27, FLT3(D835V) (Homo sapiens, UniProt P36888, D835V).
T27 construct: purchased Eurofins DiscoverX KINOMEscan
The experiment in a line: KINOMEscan at 1 μM, FLT3(D835V). Type of experiment: binding. The conditions noted are these: 1000 nM, read-out: Percent Control.
Source text: as §2

The next experiment has as its target T28, ADCK3 (Homo sapiens, UniProt Q8NI60).
T28 construct: purchased Eurofins DiscoverX KINOMEscan
Kind of experiment: KINOMEscan at 1 μM, ADCK3. It is filed as binding. The settings on record: 1000 nM, read-out: Percent Control.
Source text: as §2

The target in another experiment is T29, PIKFYVE (Homo sapiens, UniProt Q9Y2I7).
T29 construct: purchased Eurofins DiscoverX KINOMEscan
T29 sequence (Q9Y2I7 whole entry): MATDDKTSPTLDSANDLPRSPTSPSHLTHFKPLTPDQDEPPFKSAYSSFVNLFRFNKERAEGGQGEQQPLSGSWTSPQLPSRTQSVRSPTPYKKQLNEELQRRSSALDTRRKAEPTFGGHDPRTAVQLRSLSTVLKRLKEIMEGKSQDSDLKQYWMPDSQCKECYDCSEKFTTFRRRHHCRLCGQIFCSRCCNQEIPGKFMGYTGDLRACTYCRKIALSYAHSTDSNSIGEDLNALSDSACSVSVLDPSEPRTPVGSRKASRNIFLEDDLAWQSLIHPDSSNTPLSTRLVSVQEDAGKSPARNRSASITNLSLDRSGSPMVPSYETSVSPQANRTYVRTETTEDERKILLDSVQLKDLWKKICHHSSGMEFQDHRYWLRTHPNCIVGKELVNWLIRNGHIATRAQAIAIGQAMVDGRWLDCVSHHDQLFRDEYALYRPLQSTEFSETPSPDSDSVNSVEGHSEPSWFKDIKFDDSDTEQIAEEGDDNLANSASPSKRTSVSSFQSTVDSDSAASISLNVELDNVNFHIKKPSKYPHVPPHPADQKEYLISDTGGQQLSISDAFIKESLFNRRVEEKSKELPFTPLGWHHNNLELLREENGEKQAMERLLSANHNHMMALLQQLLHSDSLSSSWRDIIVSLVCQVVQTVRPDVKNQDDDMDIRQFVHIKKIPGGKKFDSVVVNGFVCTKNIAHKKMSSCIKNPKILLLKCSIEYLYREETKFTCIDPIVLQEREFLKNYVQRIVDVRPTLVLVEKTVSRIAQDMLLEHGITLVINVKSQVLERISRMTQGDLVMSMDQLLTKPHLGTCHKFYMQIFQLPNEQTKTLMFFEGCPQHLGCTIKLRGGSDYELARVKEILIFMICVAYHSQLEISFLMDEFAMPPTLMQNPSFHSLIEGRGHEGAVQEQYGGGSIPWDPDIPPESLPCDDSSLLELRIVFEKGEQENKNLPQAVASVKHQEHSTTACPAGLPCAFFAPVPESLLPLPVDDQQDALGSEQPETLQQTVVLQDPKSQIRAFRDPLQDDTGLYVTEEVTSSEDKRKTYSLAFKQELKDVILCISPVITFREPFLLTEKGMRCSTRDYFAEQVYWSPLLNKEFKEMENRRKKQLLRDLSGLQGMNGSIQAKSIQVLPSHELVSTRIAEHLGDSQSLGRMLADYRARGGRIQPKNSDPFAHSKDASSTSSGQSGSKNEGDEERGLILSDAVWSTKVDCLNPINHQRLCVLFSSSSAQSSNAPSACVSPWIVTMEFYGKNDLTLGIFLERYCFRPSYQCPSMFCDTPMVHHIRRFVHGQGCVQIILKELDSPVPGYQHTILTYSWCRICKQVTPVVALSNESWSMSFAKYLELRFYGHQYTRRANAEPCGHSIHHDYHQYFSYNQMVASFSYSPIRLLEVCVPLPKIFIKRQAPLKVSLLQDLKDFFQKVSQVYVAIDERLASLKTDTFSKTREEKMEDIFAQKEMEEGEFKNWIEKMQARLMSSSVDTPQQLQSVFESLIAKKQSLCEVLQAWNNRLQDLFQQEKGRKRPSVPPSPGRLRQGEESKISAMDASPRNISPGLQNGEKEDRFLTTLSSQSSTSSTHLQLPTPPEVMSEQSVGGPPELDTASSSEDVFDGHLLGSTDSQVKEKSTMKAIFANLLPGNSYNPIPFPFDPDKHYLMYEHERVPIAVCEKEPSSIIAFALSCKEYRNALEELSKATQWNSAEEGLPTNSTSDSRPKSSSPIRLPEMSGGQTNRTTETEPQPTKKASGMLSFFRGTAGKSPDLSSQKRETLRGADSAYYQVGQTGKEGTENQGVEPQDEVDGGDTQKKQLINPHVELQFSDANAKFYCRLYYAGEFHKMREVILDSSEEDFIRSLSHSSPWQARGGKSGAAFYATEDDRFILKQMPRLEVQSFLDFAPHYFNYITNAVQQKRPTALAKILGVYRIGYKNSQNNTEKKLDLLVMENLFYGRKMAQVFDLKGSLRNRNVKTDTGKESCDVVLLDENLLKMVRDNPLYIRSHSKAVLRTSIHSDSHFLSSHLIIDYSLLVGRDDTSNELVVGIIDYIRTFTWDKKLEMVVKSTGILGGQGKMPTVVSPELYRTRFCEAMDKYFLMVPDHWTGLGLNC
Kind of experiment: KINOMEscan at 1 μM, PIKFYVE. It is filed as binding. The settings on record: 1000 nM, read-out: Percent Control.
Source text: as §2

For a further experiment, the target named is T30, SgK110 (Homo sapiens, UniProt P0C264).
T30 construct: purchased Eurofins DiscoverX KINOMEscan
Kind of experiment: KINOMEscan at 1 μM, SgK110. Type of experiment: binding. The settings on record: 1000 nM, read-out: Percent Control.
Source text: as §2

The next experiment deals with T31, MKK7 (Homo sapiens, UniProt O14733).
T31 construct: purchased Eurofins DiscoverX KINOMEscan
The experiment in a line: KINOMEscan at 1 μM, MKK7. Type of experiment: binding. The conditions noted are these: 1000 nM, read-out: Percent Control.
Source text: as §2

The next experiment has as its target T32, CSNK1A1 (Homo sapiens, UniProt P48729).
T32 construct: purchased Eurofins DiscoverX KINOMEscan
Kind of experiment: KINOMEscan at 1 μM, CSNK1A1. It is filed as binding. The conditions noted are these: 1000 nM, read-out: Percent Control.
Source text: as §2

For a further experiment, the target named is T33, EPHB4 (Homo sapiens, UniProt P54760).
T33 construct: purchased Eurofins DiscoverX KINOMEscan
The experiment in a line: KINOMEscan at 1 μM, EPHB4. The conditions noted are these: 1000 nM, read-out: Percent Control. Type of experiment: binding.
Source text: as §2

`Cc1cccc(-c2cnc3occ(-c4ccc(C(=O)O)c(C5CCCC5)c4)c3c2)c1` [SGC-CAMKK2-1 (YL-36)]: the remaining binding at 1 µM on TNNI3K was determined as 100%; at NEK11, 100%; on PHKG1 it was 80%; in [1] it was 71%; on MAP3K4 it was 100%; in experiment [2], 73%. Moreover, the remaining binding at 1 µM (in experiment [3]; at TRPM6; on ADCK4; at KIT-autoinhibited [4]; at BTK; on CSNK2A2) was 100% in each case. For the same compound, the remaining binding at 1 µM came to 100% at EPHB1, 70% at LRRK2 and 100% at RIPK5.

In the case of `O=C(O)c1ccc(-c2coc3ncc(-c4ccccc4)cc23)cc1Cl` [SGC-CAMKK2-1N (UNC-YL-83)], the remaining binding at 1 µM on AAK1 was determined as 87%; in experiment [5] it was 92%; on PKAC-alpha, 100%; at KIT-autoinhibited [6], 92%; at BLK it was 87%; on CDK4-cyclinD1 it was 70%. Also, the remaining binding at 1 µM on CDC2L5 turned out to be 57%; at AKT2, 85%; on ACVR1B it was 100%; at PRKG2 it was 80%; on EPHB2, 100%; on PIK3CA(E545A), 59%. For the same compound, the remaining binding at 1 µM stood at 97% at FLT3(D835V); 68% on ADCK3; 84% at PIKFYVE; 69% on SgK110; 82% at MKK7; 44% on CSNK1A1. The remaining binding at 1 µM at EPHB4 was 56%.
